Data reported in US20160264570A1, “METHOD OF BLOCKING TRANSMISSION OF MALARIAL PARASITE” (THE UNITED STATES OF AMERICA, AS REPRESENTED BY THE …, priority 2013, published 2016).
pIC50: −log10 of the molar value. Where two headings read alike, the source gives them in different places.

Columns and labels:
HepG2 cells = test: Cytotoxicity in mammalian HepG2 cell line; conditions: for % Max response: HepG2
[1] = tested on: P. falciparum strain 3D7 gametocytes; test: alamarBlue gametocyte viability assay, strain 3D7
[2] = tested on: P. falciparum strain HB3 gametocytes; test: alamarBlue gametocyte viability assay, strain HB3
[3] = tested on: P. falciparum strain Dd2 gametocytes; test: alamarBlue gametocyte viability assay, strain Dd2
Plasmodium berghei ANKA = test: Malaria mouse model of gametocyte transmission to mosquitoes (oocyst count); format: in vivo; conditions: mice, Anopheles stephensi
[4] = tested on: Asexual parasites of P. falciparum strain 3D7; test: SYBR Green viability assay on asexual parasites; format: cell-based, Plasmodium falciparum; conditions: read-out: IC50 in viability assay using asexual parasites
Dd2 asexual parasites = conditions: compared to 3D7; ref [27]; cited from earlier work
[5] = Table 2, Inactive = no significant activity at highest tested concentration (46 μM)
[6] = Table 4, Inactive = no significant activity at highest tested concentration (46 μM)
[7] = read-out: 3D7-IC50, Table 3, 11 concentrations, 1:3 dilution, three times
[8] = read-out: Gametocyte IC50, mean of at least 3 independent experiments, P. falciparum 3D7 gametocyte
[9] = read-out: HB3-IC50, Table 3, 11 concentrations, 1:3 dilution, three times
[10] = read-out: Dd2-IC50, Table 3, 11 concentrations, 1:3 dilution, three times
[11] = Plasmodium falciparum, 3D7, read-out: 3D7-IC50
[12] = Plasmodium falciparum, DD2, read-out: IC50 against Dd2 gametocytes
[13] = read-out: IC50 (μM) in HepG2, Table 2, Inactive = no significant activity at highest tested concentration (46 μM)
[14] = read-out: IC50 (μM) in HepG2 cells, Table 4, Inactive = no significant activity at highest tested concentration (46 μM)

| Molecule | % Max response (HepG2 cells; Table 2) [%] | % Max response (HepG2 cells; Table 4) [%] | IC50 (μM) in HepG2 cells (HepG2 cells; [6]) | pIC50 [1, 7] | pIC50 [1, 8] | pIC50 [2, 9] | pIC50 [3, 10] | IC50 (HepG2 cells; [13]) [µM] | IC50 (HepG2 cells; [14]) [µM] | further results |
| --- | --- | --- | --- | --- | --- | --- | --- | --- | --- | --- |
| COc1ncc(-c2ccc3nccc(-c4ccnnc4)c3c2)cc1NS(=O)(=O)c1ccc(F)cc1F [GSK-458] | 33 | 33 | Inactive | 6.03 | 6.03 | 6.48 | 5.83 |  |  | IC50 (μM) in HepG2 (HepG2 cells; [5]): Inactive |
| CN(C)c1ccc2nc3ccc(=[N+](C)C)cc-3sc2c1 [Methylene blue] |  | −20 | Inactive |  |  |  |  |  |  | pIC50 [1, 11]: 6.52; pIC50 ([2]; Plasmodium falciparum, HB3, read-out: HB3-IC50): 6.03; pIC50 ([3]; Plasmodium falciparum, DD2, read-out: Dd2-IC50, Table 3, 11 concentrations, 1:3 dilution, three times): 6.28; pIC50 [3, 12]: 6.28 |
| Cc1[nH]c2ccccc2c1CCNCc1ccc(/C=C/C(=O)NO)cc1 [Panobinostat] |  | −74 |  |  |  |  |  |  |  | IC50 (HepG2 cells; Homo sapiens, HepG2, read-out: IC50 (μM) in HepG2 cells): 0.372 µM; pIC50 [1, 11]: 6.05; pIC50 ([2]; Plasmodium falciparum, HB3, read-out: IC50 against HB3 gametocytes): 6.93; fold more potent against HB3 compared to 3D7 ([2]; gametocytes): 7.9 fold; pIC50 [3, 12]: 6.83; times more potent against Dd2 compared to 3D7 ([3]; gametocytes): 6.3 times |
| C=CC1CN2CCC1CC2C(O)c1ccnc2ccc(OC)cc12.C=CC1CN2CCC1CC2C(O)c1ccnc2ccc(OC)cc12.O=S(=O)(O)O (stereo not drawn) [Quinine hemisulfate] | 2 | 2 | Inactive | 6.52 | 6.46 | 6.63 | 7.08 |  |  | IC50 (μM) in HepG2 (HepG2 cells; [5]): Inactive |
| Nc1ccc(-c2ccc3ncc4ccc(=O)n(-c5cccc(C(F)(F)F)c5)c4c3c2)cn1 [Torin 2] | −46 | −46 |  |  | 8.10 | 7.82 | 7.92 | 9.35 | 9.35 | cytotoxicity in HepG2 cells (HepG2 cells; at the highest tested concentration (46 μM)): partial cytotoxicity; oocyst production in mosquitoes (Plasmodium berghei ANKA; single 4 mg/kg dose i.v.): almost completely eliminated; oocyst production in mosquitoes (Plasmodium berghei ANKA; single dose of 2 mg/kg i.v.): significantly reduced; oocyst production in mosquitoes (Plasmodium berghei ANKA; two 4 mg/kg doses i.v.): completely blocked; pIC50 [4]: 8.56 |
| CC1=C(CO)C(=O)O[C@@H]([C@@H](C)[C@H]2CC[C@H]3[C@@H]4C[C@H]5O[C@]56[C@@H](O)C=CC(=O)[C@]6(C)[C@H]4CC[C@]23C)C1 [Withaferin A] | −80 | −80 |  | 6.52 | 6.43 | 5.88 | 6.43 | 9.35 | 9.35 |  |
| CCN(CC)CCCC(C)Nc1ccnc2cc(Cl)ccc12 (stereo not drawn) [chloroquine] |  |  |  |  |  |  |  |  |  | fold less potent against Dd2 asexual parasites (Dd2 asexual parasites): 10 fold; reduction of potency against Dd2 gametocytes compared to 3D7 [3]: 3.7 fold |
| Monensin sodium | 40 | 40 |  | 6.70 | 6.60 | 6.58 | 6.43 |  |  | IC50 (μM) in HepG2 (HepG2 cells): Inactive; IC50 (μM) in HepG2 cells (HepG2 cells): Inactive |
| Zinc pyrithione | −99 | −99 |  |  | 7.03 | 7.23 | 7.23 | 2.15 | 2.15 |  |
